Source: patent US20090253755A1, “N-[(PYRIDIN-2-YL) METHOXY] BENZAMIDE DERIVATIVES AND RELATED COMPOUNDS AS FUNGICIDES” (Bayer Cropscience SA, priority 2006, published 2009)

Test system: Alternaria alternata
Test: Cell test on Alternaria alternata
Format: cell-based
Details: under similar conditions (cell test, 2 ppm)
Description: Cell Test on Alternaria alternata
The growth of Alternaria alternata is performed on PDA medium at 20° C. under black light during 14 days. The PDA medium is prepared by mixing 39 grams of PDA (Merck) in 1 liter of demineralized water.
The medium is sterilized by autoclave 15 minutes at 121° C. After 14 days of growth, the spores of Alternaria alternata are recovered in sterilized water and the concentration of spores adjusted to 10^6 spores per ml.
The compounds is solubilized in DMSO and added to sterile liquid glucose/mycopeptone medium (14.6 g/l of D-glucose, 7.1 g/l of mycological peptone (Oxoid) and 1.4 g/l of yeast extract (Merck)) at a concentration of 2 ppm.
The medium is inoculated with the spore suspension at a concentration of 10^5 spores per ml.
The efficacy of the compounds is assessed by OD measurement at 620 nm after 5 days at 20° C. in comparison with a control.

SMILES	activity
O=C(NOCc1ncc(C(F)(F)F)cc1Cl)c1c(F)cccc1F [Compound 502, N-{[3-chloro-5-(trifluoromethyl)pyridin-2-yl]methoxy}-2,6-difluorobenzamide]	did not show any activity
O=C(NOCc1ncc(C(F)(F)F)cc1Cl)c1c(Cl)cccc1Cl [Compound 501, 2,6-dichloro-N-{[3-chloro-5-(trifluoromethyl)pyridin-2-yl]methoxy}benzamide]	did not show any activity
